Experimental findings from patent US11226337B2, “Chemoproteomic profiling of protein electrophilic and oxidative post-translational modifications” (Zenagem, LLC, priority 2017, dated 2022) are described below.

Common to all, as to assay: gel-based RP-ABPP of transfected HEK293T cells
Holding throughout (assay type): cell-based
Common to all, as to details: transfected HEK293T cells vs mock

Assay [1] has as its target T1, AMD1 (Homo sapiens, UniProt P17707).
T1 construct: Full-length genes encoding three probe 1- and one probe 2-targeted proteins were amplified from a cDNA library; expressed in transfected cells; host or cells: HEK293T
T1 sequence (P17707 68-334 limits assumed): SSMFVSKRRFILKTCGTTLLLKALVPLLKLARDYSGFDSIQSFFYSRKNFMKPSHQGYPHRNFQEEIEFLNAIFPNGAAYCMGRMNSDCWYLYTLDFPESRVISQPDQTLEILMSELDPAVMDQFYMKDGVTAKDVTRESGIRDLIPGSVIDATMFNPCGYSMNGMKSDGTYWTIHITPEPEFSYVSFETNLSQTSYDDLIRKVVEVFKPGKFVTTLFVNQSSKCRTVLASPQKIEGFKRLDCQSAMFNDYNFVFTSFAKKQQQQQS
T1 sequence (P17707 1-67 limits assumed): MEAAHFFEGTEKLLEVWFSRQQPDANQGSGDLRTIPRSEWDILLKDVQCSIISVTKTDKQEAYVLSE

Assay [2] addresses T2, FTO (Homo sapiens, UniProt Q9C0B1).
T2 construct: Full-length genes encoding three probe 1- and one probe 2-targeted proteins were amplified from a cDNA library; expressed in transfected cells; host or cells: HEK293T
As for the experimental part:
(§1) Soluble proteomes from treated cells were diluted to 1 mg/mL. To each sample (50 μL), a freshly prepared “click” or CuAAC reagent mixture (6 μL) containing 0.1 mM tris(benzyltriazolylmethyl)amine (TBTA) (3 μL/sample, 1.7 mM in 4:1 DMSO:t-BuOH), 1 mM CuSO4 (1 μL/sample, 50 mM in H2O), 25 μM azide-rhodamine (1 μL/sample, 1.25 mM in DMSO), and freshly prepared 1 mM tris(2-carboxyethyl)phosphine (TCEP) (1 μL/sample, 50 mM in PBS or H2O) was added to conjugate the fluorophore to probe-labelled proteins. TBTA was purchased from TCI and azide-rhodamine was synthesized as previously described^64. Upon addition of the click mixture, each reaction was immediately mixed by vortexing and then allowed to react at ambient temperature for 1 hour before quenching the reactions with SDS loading buffer (4× stock, 17 μL). Proteins (˜25 μg total protein loaded per gel lane) were resolved by SDS-PAGE (10% acrylamide) and visualized by in-gel fluorescence scanning on a Hitachi FMBIO-II or BioRad ChemiDoc MP flatbed fluorescence scanner.
(§2) Full-length genes encoding three probe 1- and one probe 2-targeted proteins were amplified from a cDNA library derived from the same low-passage HEK293T cells used for proteomic profiling. The library was generated using Ribozol RNA extraction (Amresco) and iScript reverse transcription (Bio-rad) supermix reagents. The gene products were cloned into mammalian expression vectors containing N- or C-terminal FLAG affinity tags. The gene for S-adenosyl-L-methionine decarboxylase (AMD1 or AdoMetDC) was cloned into pFLAG-CMV-sport6 (N-terminal tag) at NotI and SalI restriction sites. AMD1, Secernin-3 (SCRN3) and fat mass- and obesity-associated Fe(II)- and 20G-dependent dioxygenase (FTO) were cloned into pRK5 (C-terminal tag) at SalI and NotI restriction sites. Kelch-like ECH-associated protein-1 (Keapl) (N-terminal tag), and empty plasmids of pRK5 were gifts. Full sequences of the genes were confirmed. The proteins expressed via transient transfection in HEK293T cells contain an additional 15 amino acids appended to their N-terminal methionine residue or C-terminus (MDYKD4KLKACGR (SEQ ID NO: 43) and A3G4DYKD4K (SEQ ID NO: 44), respectively). The DYKD4K (SEQ ID NO: 42) appendage in each contains the classic FLAG epitope that permits detection by western blotting or purification by affinity chromatography. Mutants of SCRN3 were generated using QuikChange site-directed mutagenesis with primers containing the desired mutations and their respective compliments. The gene for the deletion mutant of SCRN3 with the sequence MetlCys6-SCRN3 instead of Met1 Glu2Pro3Phe4Ser5Cys6-SCRN3 (SEQ ID NO: 45) was amplified from the wild-type C-terminal FLAG-tagged construct and cloned into the same vector.
(§3) HEK293T cells were grown to ˜40% confluence under standard growth conditions passaged in the appropriate media before adding the appropriate expression vector (control cells (‘mock’) received an equal amount of the appropriate empty vector) and polyethyleneimine (PEI) ‘MAX’ (MW 40,000, Polysciences Inc.) as a transfection reagent under standard transfection conditions (3:1 vector/PEI (w/w) ratio). Cells were incubated for ˜48 h before labelling in situ. Proteomes were processed for gel- and MS-based experiments as described above and in Example 2.
(§4) After scanning fluorescence, that same gel was transferred to nitrocellulose membrane in Towbin buffer, the membrane was blocked for ˜1 hour at ambient temperature with 5% nonfat dry milk (w/v) in Tris-buffered saline with Tween 20 (TBST) and incubated with primary antibodies in the same solution overnight at 4° C. The antibodies included anti-FLAG (1:2500, F1804, Sigma), anti-AdoMetDC (1:500, sc-160951, Santa Cruz Biotechnology) and anti-His6 (1:1000, ab18184, Abcam). The blots were washed (3×5 min, TBST), incubated with secondary antibodies (1:10,000, IRDye 800CW, LICOR) in milk for 1 hour at ambient temperature, washed again (3×5 min, TBST), and visualized on a LICOR Odyssey Scanner.

In assay [3] the target is T3, KEAP1 (Homo sapiens, UniProt Q14145).
T3 construct: Full-length genes encoding three probe 1- and one probe 2-targeted proteins were amplified from a cDNA library; expressed in transfected cells; host or cells: HEK293T
T3 sequence (Q14145 whole entry): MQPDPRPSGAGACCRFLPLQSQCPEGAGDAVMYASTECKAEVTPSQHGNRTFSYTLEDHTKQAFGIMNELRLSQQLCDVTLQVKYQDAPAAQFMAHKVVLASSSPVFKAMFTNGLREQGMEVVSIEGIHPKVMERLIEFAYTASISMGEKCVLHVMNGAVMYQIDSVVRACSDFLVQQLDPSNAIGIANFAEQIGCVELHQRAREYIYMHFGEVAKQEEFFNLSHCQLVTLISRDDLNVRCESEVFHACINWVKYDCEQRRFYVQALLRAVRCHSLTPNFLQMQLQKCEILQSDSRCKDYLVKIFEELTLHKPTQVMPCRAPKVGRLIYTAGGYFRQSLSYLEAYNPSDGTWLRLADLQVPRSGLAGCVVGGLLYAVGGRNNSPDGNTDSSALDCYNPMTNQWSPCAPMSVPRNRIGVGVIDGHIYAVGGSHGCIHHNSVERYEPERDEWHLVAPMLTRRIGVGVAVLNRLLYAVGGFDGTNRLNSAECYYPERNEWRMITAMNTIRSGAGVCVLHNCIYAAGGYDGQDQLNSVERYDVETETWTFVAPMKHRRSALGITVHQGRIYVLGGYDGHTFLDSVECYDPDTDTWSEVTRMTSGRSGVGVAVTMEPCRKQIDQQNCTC
As for the experimental part: as §1, §2, §3, §4

Assay [4] deals with T4, SCRN3 (Homo sapiens, UniProt Q0VDG4).
T4 construct: Full-length genes encoding three probe 1- and one probe 2-targeted proteins were amplified from a cDNA library; expressed in transfected cells; host or cells: HEK293T
T4 sequence (Q0VDG4 6-424): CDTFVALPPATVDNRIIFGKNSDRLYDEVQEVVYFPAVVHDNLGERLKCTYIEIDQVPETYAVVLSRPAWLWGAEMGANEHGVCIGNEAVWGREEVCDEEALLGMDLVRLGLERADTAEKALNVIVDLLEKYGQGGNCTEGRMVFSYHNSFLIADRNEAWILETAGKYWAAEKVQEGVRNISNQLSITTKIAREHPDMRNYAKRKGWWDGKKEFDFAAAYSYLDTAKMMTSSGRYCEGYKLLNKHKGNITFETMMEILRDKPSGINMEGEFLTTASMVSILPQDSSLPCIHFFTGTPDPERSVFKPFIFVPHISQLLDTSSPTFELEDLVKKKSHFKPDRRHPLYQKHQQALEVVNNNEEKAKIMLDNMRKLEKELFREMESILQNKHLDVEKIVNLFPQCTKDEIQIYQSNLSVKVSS
As for the experimental part: as §1, §2, §3, §4

T2 sequence (Q9C0B1 whole entry): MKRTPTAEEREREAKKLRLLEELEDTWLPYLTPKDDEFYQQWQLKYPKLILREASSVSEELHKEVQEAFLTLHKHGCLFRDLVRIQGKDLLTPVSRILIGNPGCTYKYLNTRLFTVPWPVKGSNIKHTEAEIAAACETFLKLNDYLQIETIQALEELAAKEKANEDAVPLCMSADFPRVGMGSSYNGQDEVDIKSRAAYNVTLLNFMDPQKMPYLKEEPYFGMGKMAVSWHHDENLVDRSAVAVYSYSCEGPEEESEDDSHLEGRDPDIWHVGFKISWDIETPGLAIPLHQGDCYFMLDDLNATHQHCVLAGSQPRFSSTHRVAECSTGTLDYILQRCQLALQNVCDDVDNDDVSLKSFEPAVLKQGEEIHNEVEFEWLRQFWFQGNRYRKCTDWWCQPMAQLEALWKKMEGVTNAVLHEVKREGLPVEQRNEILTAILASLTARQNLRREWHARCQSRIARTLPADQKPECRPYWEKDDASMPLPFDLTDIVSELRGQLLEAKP

For the molecule `C#CCNN.Cl` [probe 1, prop-2-yn-1-ylhydrazine hydrochloride], the “probe labeling of recombinant protein, in-gel fluorescence” value in assay [1] is “reacted with both probes 1 and 2”; in assay [2], “selective reactivity with the aryl probe 2 over the alkyl probe 1”; in assay [3], “reacted with both probes 1 and 2”; in assay [4] it was “reacted with both probes 1 and 2”.

`C#CCCNC(=O)c1ccc(NN)cc1.Cl` [probe 2, N-(but-3-yn-1-yl)-4-hydrazinylbenzamide hydrochloride]: the “probe labeling of recombinant protein, in-gel fluorescence” value was “reacted with both probes 1 and 2” in assay [1]; “preferentially targeted by probe 2” in assay [2]; “reacted with both probes 1 and 2” in assay [3]; “reacted with both probes 1 and 2” in assay [4].
